# Source: patent US20040176442A1, “Potassium taurate bicarbonate and ascorbate” (priority 2003, published 2004)
# Where “and” joins values, the source holds several entries; their conditions need not be identical. Equal values may be shown once.
# Test system: Dahl salt-sensitive rats
# Assay: Systolic blood pressure of Dahl salt-sensitive rats on high salt diet, PTB in drinking water (tail-cuff plethysmography)
# Type: in vivo, rat
# Conditions: for Average systolic blood pressure: 13.5 grams/liter PTB in drinking water
# Description: An experimental study was undertaken to assess the effect on blood pressure of oral PTB given in drinking water to Dahl salt-sensitive rats, which are known to experience an increase in blood pressure upon administration of salt. In this study, salt was administered in the diet to two groups of rats, a placebo group that received salt but not PTB and an active group that received both salt and PTB in drinking water.
# The study was conducted as follows: Twenty-four Dahl salt-sensitive male rats were fed regular rat chow containing 0.24% (w/w) sodium chloride for an acclimatization period. The rats were then switched to a high salt diet (4% NaCl and 1.5% KCl) and were randomly divided into two groups of twelve rats each—an active group supplied with drinking water containing 13.5 grams/liter PTB (prepared as described in Example 2, and a placebo group receiving ordinary drinking water. Food and water were available ad libitum to both groups over the 28-day course of the study. The systolic blood pressure of each rat was determined twice a week over the course of the study by the tail-cuff plethysmography method. Each recorded blood pressure was the average of 3-5 individual readings.
# Systolic blood pressure rose progressively after high-salt intake in the placebo group, reaching 172±4 mm Hg at day 28.
structure (smiles),measurement,setting,value
"NCCS(=O)(=O)O.O=C([O-])O.[K+] [PTB, potassium taurate bicarbonate]",Blunting of the expected rise in systolic blood pressure (active vs placebo group),"by the end of the 28-day study, PTB in drinking water, high salt diet",21 mm Hg
same,Average systolic blood pressure,"day 3 after administration, high salt diet (4% NaCl and 1.5% KCl)",114 mm Hg
same,Average systolic blood pressure,"day 7 after administration, high salt diet",126 mm Hg
same,Average systolic blood pressure,"day 10 after administration, high salt diet",133 mm Hg
same,Average systolic blood pressure,"day 14 after administration, high salt diet",134 mm Hg
same,Average systolic blood pressure,"day 17 after administration, high salt diet",138±2 mm Hg and 138 mm Hg
same,Average systolic blood pressure,"day 21 after administration, high salt diet",150 mm Hg
same,Average systolic blood pressure,"day 24 after administration, high salt diet",143±3 mm Hg and 143 mm Hg
same,Average systolic blood pressure,"day 28 after administration, high salt diet",151±3 mm Hg and 151 mm Hg
